Laboratory results reported in patent publication US10925880B2, “Combination of PI3K-inhibitors” (BAYER PHARMA AKTIENGESELLSCHAFT, priority 2016, dated 2021).
Structures can show the parent of a compound that is named as a salt.

Assays:
Type in all cases: cell-based
[1] = tested on: ESKOL; test: 72-hour cell proliferation assay (Cell Titer Glo); details: ESKOL (MZL), single agent; for IC50: 72 h
Protocol: (§1) Combinations of Copanlisib and ABT-199 or Palbociclib in a Panel Cell Lines Assessed by the Combination Index (CI) of a 72-Hour Cell Proliferation Assay The effect of combinations of the present invention was evaluated using combination index isobologram analysis for in vitro assessment. The efficacy parameter was the effect in a 72-hour cell proliferation assay. Briefly, 3000 cells were plated in 384-well plates with appropriate growth medium. […] Cells were treated for 72 hours followed by assessment of cell viability by means of Cell Titer Glo assay (Promega). Experiments were conducted in duplicates. The mapping IC50 values were calculated. The corresponding component concentrations of copanlisib and ABT-199 or Palbociclib were calculated and used for plotting isobolograms. Effects were analyzed as described by Chou (Pharmacology Reviews 2006) and the combination index was calculated using the formula: Combination Index=[Ax]/A′+[Bx]/B′ [Ax] and [Bx] refer to component A and component B. A′ and B′ refer to the IC50 values of A and B, respectively, as a single agent. […] Cis of 0.9-1.1 were defined as additive effect. Cis greater than 1.1 were defined as antagonistic effects.

[2] = tested on: GRANTA-519; test: 72-hour cell proliferation assay (Cell Titer Glo); details: GRANTA-519 (MCL), single agent; for IC50: Homo sapiens, 72 h
Protocol: as §1

[3] = tested on: HAIR-M; test: 72-hour cell proliferation assay (Cell Titer Glo); details: HAIR-M (MZL), single agent; for IC50: 72 h
Protocol: as §1

[4] = tested on: HC-1; test: 72-hour cell proliferation assay (Cell Titer Glo); details: HC-1 (MZL), single agent; for IC50: 72 h
Protocol: as §1

[5] = tested on: JEKO-1; test: 72-hour cell proliferation assay (Cell Titer Glo); details: JEKO-1 (MCL), single agent; for IC50: Homo sapiens, 72 h
Protocol: as §1

[6] = tested on: JVM-2; test: 72-hour cell proliferation assay (Cell Titer Glo); details: JVM-2 (MCL), single agent; for IC50: Homo sapiens, 72 h
Protocol: as §1

[7] = tested on: KARPAS-1718; test: 72-hour cell proliferation assay (Cell Titer Glo); details: KARPAS-1718 (SMZL), single agent; for IC50: 72 h
Protocol: as §1

[8] = tested on: MAVER-1; test: 72-hour cell proliferation assay (Cell Titer Glo); details: MAVER-1 (MCL), single agent; for IC50: Homo sapiens, Maver1, 72 h
Protocol: as §1

[9] = tested on: MINO; test: 72-hour cell proliferation assay (Cell Titer Glo); details: MINO (MCL), single agent; for IC50: Homo sapiens, 72 h
Protocol: as §1

[10] = tested on: REC-1; test: 72-hour cell proliferation assay (Cell Titer Glo); details: REC-1 (MCL), single agent; for IC50: Homo sapiens, Rec1, 72 h
Protocol: as §1

[11] = tested on: SP-49; test: 72-hour cell proliferation assay (Cell Titer Glo); details: SP-49 (MCL), single agent; for IC50: 72 h
Protocol: as §1

[12] = tested on: SP-53; test: 72-hour cell proliferation assay (Cell Titer Glo); details: SP-53 (MCL), single agent; for IC50: 72 h
Protocol: as §1

[13] = tested on: SSK41; test: 72-hour cell proliferation assay (Cell Titer Glo); details: SSK41 (SMZL), single agent; for IC50: 72 h
Protocol: as §1

[14] = tested on: UPN1; test: 72-hour cell proliferation assay (Cell Titer Glo); details: single agent; for IC50: UPN1 (MCL), 72 h
Protocol: as §1

[15] = tested on: VL51; test: 72-hour cell proliferation assay (Cell Titer Glo); details: VL51 (SMZL), single agent; for IC50: Homo sapiens, 72 h
Protocol: as §1

[16] = tested on: Z-138; test: 72-hour cell proliferation assay (Cell Titer Glo); details: Z-138 (MCL), single agent; for IC50: Homo sapiens, 72 h
Protocol: as §1

[17] = tested on: Mantle Cell Lymphoma (MCL), Marginal zone lymphoma (MZL) and Splenic marginal zone lymphoma (SMZL) cell lines; test: 72-hour cell proliferation assay, summary over the cell line panel; details: ten MCL, three MZL and three SMZL cell lines, range over panel
Protocol: as §1

CC1(C)CCC(CN2CCN(c3ccc(C(=O)NS(=O)(=O)c4ccc(NCC5CCOCC5)c([N+](=O)[O-])c4)c(Oc4cnc5[nH]ccc5c4)c3)CC2)=C(c2ccc(Cl)cc2)C1 [venetoclax, reference compound]
IC50 [1]: ≥ 10000 nM | IC50 [2]: 17.7 nM | IC50 [3]: 256 nM | IC50 [4]: ≥ 10000 nM | IC50 [5]: 3430 nM | IC50 [6]: 5740 nM | IC50 [7]: 3.72 nM | IC50 [8]: 1.86 nM | IC50 [9]: 1.28 nM | IC50 [10]: 20.3 nM | IC50 [11]: 1720 nM | IC50 [12]: ≥ 10000 nM | IC50 [13]: 6230 nM | IC50 [14]: ≥ 10000 nM | IC50 [15]: 1490 nM | IC50 [16]: 1000 nM

CC(=O)c1c(C)c2cnc(Nc3ccc(N4CCNCC4)cn3)nc2n(C2CCCC2)c1=O [palbociclib, reference compound]
IC50 [1]: 2070 nM | IC50 [2]: ≥ 10000 nM | IC50 [3]: 1560 nM | IC50 [4]: 2300 nM | IC50 [5]: 404 nM | IC50 [6]: 5660 nM | IC50 [7]: 7650 nM | IC50 [8]: 470 nM | IC50 [9]: 575 nM | IC50 [10]: 4710 nM | IC50 [11]: 205 nM | IC50 [12]: 95.9 nM | IC50 [13]: 2310 nM | IC50 [14]: 3400 nM | IC50 [15]: ≥ 10000 nM | IC50 [16]: 1290 nM

COc1c(OCCCN2CCOCC2)ccc2c1N=C(NC(=O)c1cnc(N)nc1)N1CCN=C21 [copanlisib, 2-amino-N—[7-methoxy-8-(3-morpholin-4-ylpropoxy)-2,3-dihydroimidazo[1,2-c]quinazolin-5-yl]pyrimidine-5-carboxamide dihydrochloride]
monotherapy anti-proliferative activity [1]: strong | IC50 [1]: 98.8 nM | monotherapy anti-proliferative activity [2]: moderate | IC50 [2]: 111 nM | monotherapy anti-proliferative activity [3]: very strong | IC50 [3]: 5.39 nM | monotherapy anti-proliferative activity [4]: moderate | IC50 [4]: 183 nM | IC50 [5]: 40.9 nM | monotherapy anti-proliferative activity [5]: strong | IC50 [6]: 21.7 nM | monotherapy anti-proliferative activity [6]: strong | monotherapy anti-proliferative activity [7]: strong | IC50 [7]: 15.1 nM | IC50 [8]: 104 nM | monotherapy anti-proliferative activity [8]: moderate | IC50 [9]: 102 nM | monotherapy anti-proliferative activity [9]: moderate | IC50 [10]: 6 nM | monotherapy anti-proliferative activity [10]: very strong | monotherapy anti-proliferative activity [11]: very strong | IC50 [11]: 2.5 nM | monotherapy anti-proliferative activity [12]: very strong | IC50 [12]: 1.43 nM | monotherapy anti-proliferative activity [13]: strong | IC50 [13]: 50.8 nM | IC50 [14]: 15 nM | monotherapy anti-proliferative activity ([14]; UPN-1 (MCL)): strong | IC50 [15]: 20.7 nM | monotherapy anti-proliferative activity [15]: strong | IC50 [16]: 20.5 nM | monotherapy anti-proliferative activity [16]: strong | monotherapy anti-proliferative activity [17]: very strong to moderate
